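Following 48 hours of exposure in 96-well plates, responses at five concentrations were used to interpolate endpoints linearly. GI50 is the concentration that inhibits growth by half. TGI denotes the concentration required for complete inhibition of growth.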
What was measured:
Assay in all cases: inhibition of tumour cell growth, NCI panel, 48 h
[1] = tested on: CAKI-1 renal
[2] = tested on: SK-MEL-28 melanoma
[3] = tested on: TK-10 renal
[4] = tested on: SF-268 CNS
[5] = tested on: SK-OV-3 ovarian
[6] = tested on: KM12 colon
[7] = tested on: HCT-116 colon
[8] = tested on: NCI-H460 lung
[9] = tested on: PC-3 prostate
[10] = tested on: MDA-MB-231 breast

## COC(=O)C1=CO[C@@H](OC2CC(CO)C(O)C(O)C2O)[C@@H]2[C@@H](C)[C@@H](OC(=O)/C=C/c3ccccc3)[C@@H](O)[C@H]12 (some centres undefined) (tested in a mixture with another compound)
[1]
  TGI: > 100 µM
[2]
  TGI: > 100 µM
[3]
  TGI: > 100 µM
[4]
  TGI: > 100 µM
[5]
  TGI: > 100 µM
[6]
  TGI: > 100 µM
[7]
  TGI: > 100 µM

## Nc1ncnc2c1ncn2C1OC(CSCC(F)(F)F)C(O)C1O (centres undefined)
[1]
  TGI: > 100 µM
[2]
  TGI: > 100 µM
[3]
  TGI: > 100 µM
[4]
  TGI: > 100 µM
[8]
  TGI: > 100 µM
[5]
  TGI: > 100 µM
[6]
  TGI: > 100 µM
[7]
  TGI: > 100 µM

## CCSC1=NC2C(N(CC)C(=O)N2CC)N1/N=C/C=C/c1ccccc1[N+](=O)[O-] (centres undefined)
[1]
  GI50: 0.0647 µM
  TGI: > 100 µM
[9]
  GI50: 0.187 µM
  TGI: > 100 µM
[10]
  GI50: 0.312 µM
[2]
  GI50: 5.83 µM
  TGI: > 100 µM
[3]
  GI50: 36.8 µM
  TGI: > 100 µM
[4]
  GI50: 0.486 µM
  TGI: > 100 µM
[8]
  GI50: 0.228 µM
  TGI: 12.2 µM
[5]
  GI50: 0.329 µM
  TGI: > 100 µM
[6]
  GI50: 0.0887 µM
  TGI: > 37.7 µM
[7]
  GI50: 0.114 µM
  TGI: > 100 µM

## COc1cc(C)ccc1C(=O)c1ccc(C)cc1OC
[1]
  GI50: 2.3 µM
  TGI: 92.3 µM
[9]
  GI50: 4.08 µM
  TGI: > 100 µM
[10]
  GI50: 7.58 µM
  TGI: > 100 µM
[2]
  GI50: 6.96 µM
  TGI: > 100 µM
[3]
  GI50: 9.15 µM
  TGI: > 100 µM
[4]
  GI50: 7.92 µM
  TGI: > 100 µM
[8]
  GI50: 3.39 µM
  TGI: > 100 µM
[5]
  GI50: 2.66 µM
  TGI: 14.1 µM
[6]
  GI50: 0.926 µM
  TGI: > 100 µM
[7]
  GI50: 3.25 µM
  TGI: > 100 µM

## CN(C(=O)/C=C/c1ccccc1)C1C2CN3CCC(O2)C13 (centres undefined)
[1]
  TGI: > 100 µM
[2]
  TGI: > 100 µM
[3]
  TGI: > 100 µM
[4]
  TGI: > 100 µM
[8]
  TGI: > 100 µM
[5]
  TGI: > 100 µM
[6]
  TGI: > 100 µM
[7]
  TGI: > 100 µM

## Oc1cccc(Nc2nc3ccccc3c3occc23)c1
[1]
  GI50: 2.04 µM
  TGI: 6.65 µM
[9]
  GI50: 8.59 µM
  TGI: 21 µM
[10]
  GI50: 11.5 µM
  TGI: 27 µM
[2]
  GI50: 0.364 µM
  TGI: 12.5 µM
[3]
  GI50: 5.21 µM
  TGI: 12.2 µM
[4]
  GI50: 4.39 µM
  TGI: 17.5 µM
[8]
  GI50: 6.13 µM
  TGI: 20.2 µM
[5]
  GI50: 11.7 µM
  TGI: 23.9 µM
[6]
  GI50: 3.24 µM
  TGI: 13 µM
[7]
  GI50: 17.3 µM
  TGI: 31.1 µM

## Cc1c(/C=N/NC(=O)c2ccccc2O)c(=O)n(-c2ccccc2)n1C
[2]
  TGI: > 100 µM
[3]
  TGI: > 100 µM
[4]
  TGI: > 100 µM
[8]
  TGI: > 100 µM
[5]
  TGI: > 100 µM
[6]
  TGI: > 100 µM
[7]
  TGI: > 100 µM

## COC1=NCc2ccccc2-c2ccccc21
[2]
  TGI: > 100 µM
[3]
  TGI: > 100 µM
[4]
  TGI: > 100 µM
[8]
  TGI: > 100 µM
[5]
  TGI: > 100 µM
[6]
  TGI: > 100 µM
[7]
  TGI: > 100 µM

## O=c1ncccn1[C@@H]1O[C@H](CO)[C@H](O)C1O (some centres undefined)
[1]
  TGI: > 100 µM
[2]
  TGI: > 100 µM
[3]
  TGI: > 100 µM
[4]
  TGI: > 100 µM
[8]
  TGI: > 100 µM
[5]
  TGI: > 100 µM
[6]
  TGI: > 100 µM
[7]
  TGI: > 100 µM

From PubChem BioAssay (NCI)
